The series in a line: solubility of 7-des-ethyl-irinotecan compared with camptothecin and 10-hydroxycamptothecin. It is filed as physicochemical. The following applies: as compared to camptothecin and 10-hydroxycamptothecin; solvent not stated.

Take `CC[C@@]1(O)C(=O)OCc2c1cc1n(c2=O)Cc2cc3cc(OC(=O)N4CCC(N5CCCCC5)CC4)ccc3nc2-1` [7-des-ethyl-irinotecan, 10-[4-(1-piperidino)-1-piperidino]carbonyloxycamptothecin]: the solubility entry is “significantly better solubility”.

(Values after patent US9765083B2, “Method for the synthesis of irinotecan” (Synbias Pharma AG, priority 2013, dated 2017).)
